# Where two headings read alike, the source gives them in different places. Where a SMILES comes first, the peptide text is derived from it. The star is where a group is joined. Cbz = O=C(OCc1ccccc1)*
# What was measured:
# [1] = system: 20S chymotrypsin-like activity sensitive to proteasomal inhibitor MG132; assay: Proteasomal activity of stored spermatozoa, fluorometric substrate Z-LLL-AMC; format: cell-based, boar
# Protocol: Spermatozoa preserved in BTS with and without 10 μM PPi were loaded into a 96-well black plate (final sperm conc. 1×10^6 spermatozoa/ml), and incubated at 37.5° C. with Z-LLE-AMC (a specific substrate for 20S chymotrypsin-like peptidyl-glutamylpeptide hydrolyzing [PGPH] activity not sensitive to MG132; final conc. 100 μM; Enzo Life Sciences, Plymouth, Pa.), Z-LLVY-AMC (a specific substrate for 20S proteasome and other chymotrypsin-like proteases, as well as calpains; final conc. 100 μM; Enzo), Z-LLL-AMC (a specific substrate for 20S chymotrypsin-like activity sensitive to proteasomal inhibitor MG132; final conc. 100 μM; BostonBiochem, Cambridge, Mass.) or ubiquitin-AMC (specific substrate for ubiquitin-C-terminal hydrolase activity; final conc. 1 μM; Enzo) for 1 h. […] In the presence of appropriate 20S core activity, the AMC molecule is cleaved off and becomes fluorescent. This emitted fluorescence was measured every 10 min for a period of 1 h, yielding a curve of relative fluorescence (no units). Fluorescence intensity was measured by Thermo Fluoroskan Ascent (Thermo Scientific), using a 380 nm excitation and 460 nm emission.
# [2] = system: boar spermatozoa bound to porcine oocyte zona pellucida
# Protocol: Spermatozoa/oocytes were fixed in 2% formaldehyde for 40 min at room temperature, washed, permeabilized in PBS with 0.1% Triton-X-100 (PBS-TX), and blocked for 25 min in PBS-TX containing 5% normal goat serum. […] In order to count the number of spermatozoa bound to zona pellucida or acrosome reacted spermatozoa, oocyte were fixed and stained with DAPI and acrosome-binding lectin PNA-FITC (Molecular Probes) after IVF 30 min (5×10^5 spermatozoa/ml). Image acquisition was performed on a Nikon Eclipse 800 microscope (Nikon Instruments Inc., Melville, N.Y.) with Cool Snap camera (Roper Scientific, Tucson, Ariz.) and MetaMorph software (Universal Imaging Corp., Downington, Pa.).
# boar spermatozoa [3] = details: BTS-IMV+10 μM PPi, day 6, vs all other groups
# Protocol: Values are expressed as the mean±SEM. […] Values are expressed as the mean percentages ±SEM. […] (C) Effect of PPi supplementation on the viability of spermatozoa stored in commercial and custom made BTS extenders. Boar spermatozoa were preserved in BTS-IMV (IMV technologies, France) or BTS-HM (homemade) with and without 10 μM PPi for 7 days at room temperature. Sperm motilities were evaluated by observation under light microscopy at 37.5° C. […] Experiments were repeated twice.
# Semen was collected from proven fertile adult Duroc boars 15-22 months of age under the guidance of approved Animal Care and Use Committee (ACUC) protocols of the University of Missouri-Columbia (UM-C). The boars were placed on a routine collection schedule of one collection per week. The sperm-rich fraction of ejaculate was collected into an insulated vacuum bottle. Sperm-rich fractions of ejaculates with greater than 85% motile spermatozoa were used. Semen volumes were determined with a graduated cylinder. Sperm concentrations were estimated by a hemocytometer (Fisher Scientific, Houston, Tex.). The percentage of motile spermatozoa was estimated at 38.5° C. by light microscopy at 250× magnification. […]
# [4] = system: porcine oocytes inseminated with boar spermatozoa; assay: Porcine in vitro fertilization (IVF), total and polyspermic fertilization rates; format: cell-based
# Protocol: Thereafter, 25-30 oocytes were placed into each of four 50 μl drops of the mTBM medium, which had been covered with mineral oil in a 35 mm polystyrene culture dish. The dishes were allowed to equilibrate in the incubator for 30 min until spermatozoa were added for fertilization. […] At the end of the washing procedure, the spermatozoa were resuspended in mTBM medium. After appropriate dilution, 50 μl of this sperm suspension was added to 50 μl of the medium that contained oocytes to give a final sperm concentrations of 1-10×10^5 spermatozoa/ml. Different concentrations of inorganic pyrophosphate (PPi; […], Sigma) were added to fertilization drops (final concentrations; 0-20 μM) at the time of sperm addition. Oocytes were co-incubated with spermatozoa for 6 h at 38.5° C., 5% CO2. At 6 h after IVF, oocytes were transferred into 100 μl NCSU23 containing 0.4% BSA ([…], Sigma) for further culture during 16-20 h.
# boar spermatozoa [5] = details: stored in BTS with 10 μM PPi
# Protocol: Boar spermatozoa were washed twice with PBS-PVA, and sperm concentration was adjusted to 1×10^6 spermatozoa/ml in PBS-PVA. The sperm viability was assessed by LIVE/DEAD® Sperm Viability Kit (L-7011, Molecular Probes) which contains DNA dyes SYBR14 and propidium iodide (PI), following a manufacturer's protocol. Sperm samples (198 μl) were loaded onto a 96-well plate. SYBR14 (1 μl; final conc. 100 nM) and PI (1 μl; final conc. 12 μM) were added to sperm samples and incubated for 10 min at 37.5° C. in darkness. Flow cytometric analysis was performed using a Guava EasyCyte™ Plus flow cytometer (Guava Technologies, IMV Technologies, L'Aigle, France). For each sample, 5,000 events were analyzed by the Guava ExpressPro Assay program, using standard manufacturer settings. For assessment of sperm mitopotential, boar spermatozoa were stained with JC-1 (Cat. No. 4500-0250, MitoPotential Kit, IMV), and measured using manufacturer settings. For negative controls, DMSO or no staining solution was added to sperm samples.
# Following an industry practice for boar semen storage, fresh boar semen was diluted in BTS extender and stored at room temperature (15-17° C.) for 10 days. […] As described above, sperm viability was assessed by flow cytometry using a SYBR14/PI viability kit and mitopotential was measured with JC-1 dye.
# [6] = system: ubiquitin-C-terminal hydrolase activity; details: PPi+BTS (stored with 10 μM PPi), day 10; other treatments 98.4-122.7
# Protocol: (§1) The proteasomal-proteolytic and deubiquitinating activities, which are essential for fertilization, were assayed using specific fluorometric substrates Z-LLL-AMC, Z-LLVY-AMC, Z-LLE-AMC and ubiquitin-AMCs in spermatozoa stored for 3 and 10 days, with or without PPi. Alternatively, 10 μM PPi+BTS was added to semen preserved without PPi at the time of assay (“Add PPi” treatment). As a negative control, 10 μM MG132 (a proteasomal inhibitor) was added to sperm samples before assay.
# (§2) Spermatozoa preserved in BTS with and without 10 μM PPi were loaded into a 96-well black plate (final sperm conc. 1×10^6 spermatozoa/ml), and incubated at 37.5° C. with Z-LLE-AMC (a specific substrate for 20S chymotrypsin-like peptidyl-glutamylpeptide hydrolyzing [PGPH] activity not sensitive to MG132; final conc. 100 μM; Enzo Life Sciences, Plymouth, Pa.), Z-LLVY-AMC (a specific substrate for 20S proteasome and other chymotrypsin-like proteases, as well as calpains; final conc. 100 μM; Enzo), Z-LLL-AMC (a specific substrate for 20S chymotrypsin-like activity sensitive to proteasomal inhibitor MG132; final conc. 100 μM; BostonBiochem, Cambridge, Mass.) or ubiquitin-AMC (specific substrate for ubiquitin-C-terminal hydrolase activity; final conc. 1 μM; Enzo) for 1 h. Fluorogenic proteasomal core substrates are composed of a small peptide (LLL/LLE/LLVY) coupled to a fluorescent probe, aminomethylcoumarin (AMC). […] In the presence of appropriate 20S core activity, the AMC molecule is cleaved off and becomes fluorescent. This emitted fluorescence was measured every 10 min for a period of 1 h, yielding a curve of relative fluorescence (no units). Fluorescence intensity was measured by Thermo Fluoroskan Ascent (Thermo Scientific), using a 380 nm excitation and 460 nm emission.
# [7] = system: 20S chymotrypsin-like peptidyl-glutamylpeptide hydrolyzing [PGPH] activity; details: other treatments 363.1-386.1
# Protocol: as §1, §2
# [8] = system: 20S proteasome and other chymotrypsin-like proteases, as well as calpains; details: PPi+BTS and Add PPi treatments, 10 μM PPi; controls 85.7
# Protocol: as §1, §2
# sperm diluted in BTS = details: added to sperm diluted in BTS, after 6 days of cooling; cited from earlier work
compound,measurement,setting,value
"CC(C)C[C@@H](C=O)NC(=O)[C@H](CC(C)C)NC(=O)[C@H](CC(C)C)NC(=O)OCc1ccccc1 [MG132, reference compound] (Cbz-Leu-Leu-Leu-aldehyde)",chymotrypsin-like activity in spermatozoa,"[1]; 10 μM MG132 added before assay, day 3",low
"O=P(O)(O)OP(=O)(O)O [PPi, inorganic pyrophosphate]",percentage of acrosome-reacted spermatozoa,[2]; 20 μM PPi vs 0-15 μM PPi,significantly higher
same,mean number of spermatozoa bound to ZP,"[2]; increasing concentrations of PPi, 30 min, 5×10^5 spermatozoa/ml","decreased slightly, but not significantly"
same,sperm motility,boar spermatozoa [3],Higher
same,polyspermy,"[4]; 10 μM PPi in IVF medium, 1×10^6 spermatozoa/ml",84.9%
same,percentage of total and polyspermic fertilization at reduced sperm concentrations,"[4]; 10 μM PPi, 1, 2 and 5×10^5 spermatozoa/ml, significant at 5×10^5",augmented
same,fertilization rates with excess PPi,[4]; 100-500 μM PPi added into IVF medium,decreased fertilization rates in a dose-dependent manner
same,rates of total and polyspermic fertilization,"[4]; increasing concentrations of PPi (up to 10 μM) in IVF medium, 1×10^6 spermatozoa/ml",increased significantly and progressively
same,"combined (mono+polyspermic) fertilization rate, spermatozoa preserved with PPi","[4]; preserved with 10 μM PPi in BTS 3-4 days, IVF with or without PPi (FIG. 7D third, fourth column)",highest
same,fertilization,"[4]; spermatozoa stored in BTS-IMV with 10 μM PPi for 3 days, below 70% without PPi",~100%
same,"fertilization rates, spermatozoa stored without PPi, PPi added during IVF","[4]; stored 3-4 days in BTS without PPi, IVF with 10 μM PPi (FIG. 7D second column)",higher
same,content of metabolically active spermatozoa with polarized mitochondrial membranes,"boar spermatozoa [5]; day 3, JC-1",augmented
same,percentage of live spermatozoa vs control spermatozoa,"boar spermatozoa [5]; storage days 3 and 10, SYBR14/PI",no significant difference
same,chymotrypsin-like activity (Z-LLL-AMC),"[1]; 10 μM PPi treatments vs no PPi, 1 h measurement",no differences between treatments
same,"deubiquitinating activity (ubiquitin-AMC), relative fluorescence",[6],138.9
same,"chymotrypsin-like PGPH activity (Z-LLE-AMC), relative fluorescence","[7]; Add PPi treatment (10 μM PPi added at time of assay), day 3",392.1
same,"chymotrypsin-like PGPH activity (Z-LLE-AMC), relative fluorescence","[7]; PPi+BTS (stored with 10 μM PPi), day 10",388
same,"chymotrypsin-like proteasomal core activity (Z-LLVY-AMC), fluorescence intensity",[8],110.8-121.5
prostaglandin F2α [PGF2α],sperm viability and motility,sperm diluted in BTS,maintained better sperm viability and motility
